Source: PubChem BioAssay (NCI)
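All cell lines were grown in 96-well plates and treated with compound for 48 hours. TGI: total growth inhibition.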

Experiments:
Experiment in all cases: inhibition of tumour cell growth, NCI panel, 48 h
786-0 renal = test system: 786-0 renal
A498 renal = test system: A498 renal
A549 NSCLC = test system: A549 NSCLC
ACHN renal = test system: ACHN renal
CAKI-1 renal = test system: CAKI-1 renal
CCRF-CEM leukemia = test system: CCRF-CEM leukemia
COLO 205 colon = test system: COLO 205 colon
DLD-1 colon = test system: DLD-1 colon
DMS 114 small cell lung = test system: DMS 114 small cell lung
DMS 273 small cell lung = test system: DMS 273 small cell lung
EKVX NSCLC = test system: EKVX NSCLC
HCC-2998 colon = test system: HCC-2998 colon
HCT-116 colon = test system: HCT-116 colon
HCT-15 colon = test system: HCT-15 colon
HL-60(TB) leukemia = test system: HL-60(TB) leukemia
HOP-18 NSCLC = test system: HOP-18 NSCLC
HOP-62 NSCLC = test system: HOP-62 NSCLC
IGROV1 ovarian = test system: IGROV1 ovarian
K-562 leukemia = test system: K-562 leukemia
KM12 colon = test system: KM12 colon
KM20L2 colon = test system: KM20L2 colon
LXFL 529 NSCLC = test system: LXFL 529 NSCLC
M14 melanoma = test system: M14 melanoma
M19-MEL melanoma = test system: M19-MEL melanoma
MALME-3M melanoma = test system: MALME-3M melanoma
MOLT-4 leukemia = test system: MOLT-4 leukemia
NCI-H226 lung = test system: NCI-H226 lung
NCI-H460 lung = test system: NCI-H460 lung
NCI-H522 lung = test system: NCI-H522 lung
OVCAR-3 ovarian = test system: OVCAR-3 ovarian
OVCAR-4 ovarian = test system: OVCAR-4 ovarian
OVCAR-8 ovarian = test system: OVCAR-8 ovarian
RPMI-8226 leukemia = test system: RPMI-8226 leukemia
RXF 393 renal = test system: RXF 393 renal
RXF-631 renal = test system: RXF-631 renal
SF-268 CNS = test system: SF-268 CNS
SF-539 CNS = test system: SF-539 CNS
SK-MEL-2 melanoma = test system: SK-MEL-2 melanoma
SK-MEL-28 melanoma = test system: SK-MEL-28 melanoma
SK-MEL-5 melanoma = test system: SK-MEL-5 melanoma
SK-OV-3 ovarian = test system: SK-OV-3 ovarian
SN12C renal = test system: SN12C renal
SNB-19 CNS = test system: SNB-19 CNS
SNB-75 CNS = test system: SNB-75 CNS
SNB-78 CNS = test system: SNB-78 CNS
SR leukemia = test system: SR leukemia
SW-620 colon = test system: SW-620 colon
TK-10 renal = test system: TK-10 renal
U251 CNS = test system: U251 CNS
UACC-257 melanoma = test system: UACC-257 melanoma
UACC-62 melanoma = test system: UACC-62 melanoma
UO-31 renal = test system: UO-31 renal
HOP-92 NSCLC = test system: HOP-92 NSCLC
HT29 colon = test system: HT29 colon
LOX IMVI melanoma = test system: LOX IMVI melanoma
NCI-H23 lung = test system: NCI-H23 lung
OVCAR-5 ovarian = test system: OVCAR-5 ovarian
SF-295 CNS = test system: SF-295 CNS

For `O=C(O)C1CCc2nnc(-c3ccccc3)n21` (configuration not stated), the TGI (786-0 renal) was > 100 µM, the TGI (A498 renal) was > 100 µM and the TGI (A549 NSCLC) was > 100 µM. For the same compound, the TGI (ACHN renal) was > 100 µM, the TGI (CAKI-1 renal) was > 100 µM and the TGI (CCRF-CEM leukemia) was > 100 µM. The TGI (COLO 205 colon) was > 100 µM, the TGI (DLD-1 colon) was > 100 µM and the TGI (DMS 114 small cell lung) was > 100 µM. For the same compound, the TGI (DMS 273 small cell lung) was > 100 µM, the TGI (EKVX NSCLC) was > 100 µM and the TGI (HCC-2998 colon) was > 100 µM. For the same compound, the TGI (HCT-116 colon) was > 100 µM, the TGI (HCT-15 colon) was > 100 µM and the TGI (HL-60(TB) leukemia) was > 100 µM. The TGI (HOP-18 NSCLC) was > 100 µM, the TGI (HOP-62 NSCLC) was > 100 µM and the TGI (IGROV1 ovarian) was > 100 µM. The TGI (K-562 leukemia) was > 100 µM, the TGI (KM12 colon) was > 100 µM and the TGI (KM20L2 colon) was > 100 µM. For the same compound, the TGI (LXFL 529 NSCLC) was > 100 µM, the TGI (M14 melanoma) was > 100 µM and the TGI (M19-MEL melanoma) was > 100 µM. The TGI (MALME-3M melanoma) was > 100 µM, the TGI (MOLT-4 leukemia) was > 100 µM and the TGI (NCI-H226 lung) was > 100 µM. For the same compound, the TGI (NCI-H460 lung) was > 100 µM, the TGI (NCI-H522 lung) was > 100 µM and the TGI (OVCAR-3 ovarian) was > 100 µM. The TGI (OVCAR-4 ovarian) was > 100 µM, the TGI (OVCAR-8 ovarian) was > 100 µM and the TGI (RPMI-8226 leukemia) was > 100 µM. The TGI (RXF 393 renal) was > 100 µM, the TGI (RXF-631 renal) was > 100 µM and the TGI (SF-268 CNS) was > 100 µM. For the same compound, the TGI (SF-539 CNS) was > 100 µM, the TGI (SK-MEL-2 melanoma) was > 100 µM and the TGI (SK-MEL-28 melanoma) was > 100 µM. For the same compound, the TGI (SK-MEL-5 melanoma) was > 100 µM, the TGI (SK-OV-3 ovarian) was > 100 µM and the TGI (SN12C renal) was > 100 µM. The TGI (SNB-19 CNS) was > 100 µM, the TGI (SNB-75 CNS) was > 100 µM and the TGI (SNB-78 CNS) was > 100 µM. For the same compound, the TGI (SR leukemia) was > 100 µM, the TGI (SW-620 colon) was > 100 µM and the TGI (TK-10 renal) was > 100 µM. For the same compound, the TGI (U251 CNS) was > 100 µM, the TGI (UACC-257 melanoma) was > 100 µM and the TGI (UACC-62 melanoma) was > 100 µM. For the same compound, the TGI (UO-31 renal) was > 100 µM.
For `O=C(O)c1c[nH]c2c(=O)[nH]cnc12`, the TGI (786-0 renal) was > 100 µM, the TGI (A549 NSCLC) was > 100 µM and the TGI (ACHN renal) was > 100 µM. The TGI (CAKI-1 renal) was > 100 µM, the TGI (CCRF-CEM leukemia) was > 100 µM and the TGI (COLO 205 colon) was > 100 µM. For the same compound, the TGI (DLD-1 colon) was > 100 µM, the TGI (DMS 114 small cell lung) was > 100 µM and the TGI (EKVX NSCLC) was > 100 µM. The TGI (HCC-2998 colon) was > 100 µM, the TGI (HCT-116 colon) was > 100 µM and the TGI (HCT-15 colon) was > 100 µM. For the same compound, the TGI (HL-60(TB) leukemia) was > 100 µM, the TGI (HOP-18 NSCLC) was > 100 µM and the TGI (HOP-62 NSCLC) was > 100 µM. For the same compound, the TGI (HOP-92 NSCLC) was > 100 µM, the TGI (HT29 colon) was > 100 µM and the TGI (IGROV1 ovarian) was > 100 µM. For the same compound, the TGI (K-562 leukemia) was > 100 µM, the TGI (KM12 colon) was > 100 µM and the TGI (LOX IMVI melanoma) was > 100 µM. The TGI (LXFL 529 NSCLC) was > 100 µM, the TGI (M14 melanoma) was > 100 µM and the TGI (M19-MEL melanoma) was > 100 µM. The TGI (MALME-3M melanoma) was > 100 µM, the TGI (MOLT-4 leukemia) was > 100 µM and the TGI (NCI-H23 lung) was > 100 µM. The TGI (NCI-H522 lung) was > 100 µM, the TGI (OVCAR-3 ovarian) was > 100 µM and the TGI (OVCAR-5 ovarian) was > 100 µM. The TGI (OVCAR-8 ovarian) was > 100 µM, the TGI (RPMI-8226 leukemia) was > 100 µM and the TGI (RXF 393 renal) was > 100 µM. The TGI (RXF-631 renal) was > 100 µM, the TGI (SF-268 CNS) was > 100 µM and the TGI (SF-295 CNS) was > 100 µM. The TGI (SK-MEL-2 melanoma) was > 100 µM, the TGI (SK-MEL-28 melanoma) was > 100 µM and the TGI (SK-MEL-5 melanoma) was > 100 µM. The TGI (SK-OV-3 ovarian) was > 100 µM, the TGI (SN12C renal) was > 100 µM and the TGI (SNB-19 CNS) was > 100 µM. The TGI (SNB-75 CNS) was > 100 µM, the TGI (SNB-78 CNS) was > 100 µM and the TGI (SR leukemia) was > 100 µM. The TGI (SW-620 colon) was > 100 µM, the TGI (TK-10 renal) was > 100 µM and the TGI (UACC-257 melanoma) was > 100 µM. The TGI (UACC-62 melanoma) was > 100 µM and the TGI (UO-31 renal) was > 100 µM.
With `CC1=C(C)C(=O)C2=C(OCCCO2)C1=O` the TGI (786-0 renal) was 33.3 µM, the TGI (A549 NSCLC) was > 100 µM and the TGI (ACHN renal) was 32.4 µM. The TGI (CCRF-CEM leukemia) was 8.11 µM, the TGI (COLO 205 colon) was > 100 µM and the TGI (DMS 114 small cell lung) was 33.5 µM. For the same compound, the TGI (EKVX NSCLC) was 31 µM, the TGI (HCC-2998 colon) was > 100 µM and the TGI (HCT-15 colon) was > 100 µM. The TGI (HL-60(TB) leukemia) was 19 µM, the TGI (HOP-62 NSCLC) was > 100 µM and the TGI (HT29 colon) was 46.3 µM. For the same compound, the TGI (IGROV1 ovarian) was 33.3 µM, the TGI (K-562 leukemia) was 54 µM and the TGI (KM20L2 colon) was > 100 µM. It also gave a TGI (LXFL 529 NSCLC) of 31.9 µM, a TGI (M14 melanoma) of 30.7 µM and a TGI (M19-MEL melanoma) of 33.3 µM. It also gave a TGI (MOLT-4 leukemia) of 5.33 µM, a TGI (NCI-H522 lung) of 33.1 µM and a TGI (OVCAR-3 ovarian) of 32 µM. For the same compound, the TGI (OVCAR-8 ovarian) was 32.9 µM, the TGI (RPMI-8226 leukemia) was 36.1 µM and the TGI (RXF-631 renal) was 31.5 µM. For the same compound, the TGI (SF-268 CNS) was 33.2 µM, the TGI (SF-295 CNS) was 70.9 µM and the TGI (SK-MEL-28 melanoma) was > 100 µM. The TGI (SK-OV-3 ovarian) was > 100 µM, the TGI (SNB-19 CNS) was > 100 µM and the TGI (SNB-75 CNS) was 51.7 µM. For the same compound, the TGI (SR leukemia) was 44.9 µM, the TGI (SW-620 colon) was 31.2 µM and the TGI (U251 CNS) was > 100 µM. The TGI (UACC-62 melanoma) was 32.7 µM and the TGI (UO-31 renal) was 30.1 µM.
